{"source": "paper PMC11304236", "about": "“A Novel Drug Candidate for Sepsis Targeting Heparanase by Inhibiting Cytokine Storm” (Advanced Science, 2024)", "key": {"LPS-induced septic mice": {"test_system": "LPS-induced septic mice", "experiment": "LPS-induced sepsis mouse model, survival", "assay_type": "in vivo", "conditions": "40 mg kg−1 s.c. 30 min after LPS 40 mg kg−1 i.p.; 80 h or longer observation; LPS group 0%", "method": "For LPS‐induced sepsis model experiments, 25 male C57BL/6J mice, 6–8 weeks old, weighing 20–25 g, were randomly divided into five groups (n = 5 in each group), and survival was examined. The abdominal cavity was injected with 40 mg kg^−1 LPS to induce sepsis. 30 min later, mice in group 1 were injected subcutaneously with 0.9% NaCl, mice in groups 2–4 were injected subcutaneously with CV122 (20 mg kg^−1), CV122 (30 mg kg^−1), and CV122 (40 mg kg^−1), respectively, and mice in group 5 were injected subcutaneously with Suramin (40 mg kg^−1). The status of the mice was observed and recorded every day."}, "TNF-α, IL-6, IL-1β": {"test_system": "TNF-α, IL-6, IL-1β", "experiment": "Cytokine ELISA in serum and organs of LPS-induced septic mice", "assay_type": "in vivo, mouse", "conditions": "40 mg kg−1, 30 min after LPS 20 mg kg−1 i.p.; 3 h after LPS; vs LPS group", "method": "For LPS‐induced sepsis model experiments, twenty male C57BL/6J mice were randomly divided into four groups (n = 5 in each group). Mice in group 1 were injected with 0.9% NaCl, while mice in groups 2–4 were injected intraperitoneally with LPS (20 mg kg^−1). After 30 min, mice in group 3 were injected with 40 mg kg^−1 CV122 and mice in group 4 were injected with 40 mg kg^−1 Suramin. After 3 h, blood was taken and the lungs, liver, spleen, kidney heart, and brain were taken. For CLP experiments, the mice were euthanized 24 h after the establishment of the sepsis model. Blood samples were collected from the eyeballs of mice, the lungs were taken. These organs were ground at 0.1 g mL^−1 in PBS, centrifuged and the supernatant collected. Serum and organ tissue supernatants were used to detect cytokine levels using the mouse TNF‐α, IL‐6, IL‐1β ELISA MAXTM Deluxe Set."}, "HUVECs": {"test_system": "HUVECs", "experiment": "Cell survival assay (CCK-8) in HUVECs", "assay_type": "cell-based, human"}}}
{"smiles": "Cc1ccc(C(=O)Nc2ccc(S(=O)(=O)O)c3cc(S(=O)(=O)O)cc(S(=O)(=O)O)c23)cc1NC(=O)c1cccc(NC(=O)Nc2cccc(C(=O)Nc3cc(C(=O)Nc4ccc(S(=O)(=O)O)c5cc(S(=O)(=O)O)cc(S(=O)(=O)O)c45)ccc3C)c2)c1", "note": "[Suramin, reference compound]", "values": [{"measurement": "survival rate", "setting": "LPS-induced septic mice", "result": 60, "unit": "%"}, {"measurement": "TNF-α, IL-6 and IL-1β levels in serum and lungs", "setting": "TNF-α, IL-6, IL-1β", "result": "suppress the cytokine release but to a lesser extent"}, {"measurement": "effect on survival of HUVECs", "setting": "HUVECs; 100 µM, *p < 0.05", "result": "significant inhibitory effect"}, {"measurement": "effect on survival of HUVECs", "setting": "HUVECs; 200 µM, **p < 0.01", "result": "significant inhibitory effect"}]}
